Columns and labels:
[1] = test system: transgenic tobacco line ptxDNt-80; assay: Cultivation of transgenic tobacco in non-sterilized acidic agricultural soil amended with phosphite; format: in vivo
Experimental: The results of Example 1 were obtained from greenhouse experiments with plants grown in a sterilized mixture of sand and vermiculite as the substrate. In contrast, the present example reports experiments performed in a greenhouse using a non-sterilized agricultural soil as a substrate, to determine whether the cultivation system disclosed herein works equally well with a natural substrate. Although the experiments were performed in a greenhouse, the agricultural soil was not sterilized and therefore contained soil organisms, such as bacteria and fungi, that live naturally in the soil.
An acidic agricultural soil was obtained from North Mexico. The soil has a low content of phosphorus, about 5 parts per million. The soil was used directly from the field, and was not sterilized. The soil is a sandy loam, composed of about 30% clay, 21% silt, and 49% sand, and is acidic, with a pH of 5.1. The soil has an electrical conductivity (milli-mhos per centimeter) of 0.20. The soil has 1.4% organic matter. Besides phosphorus, the soil has the following assimilable nutrients and minor elements (parts per million): nitrogen 5, potassium 100, iron 7, manganese 26, copper 0.2, and zinc 0.9. The soil has soluble cations and anions (milli-equivalents per liter) as follows: potassium 0.15, calcium 1.5, magnesium 0.5, sodium 0.5, bicarbonates 1.0, and chlorides 0.7.
A transgenic tobacco line, ptxDNt-80, was used for the experiments. The transgenic line has been modified genetically to express a bacterial phosphite oxidoreductase, namely, PtxD (SEQ ID NO:1). The soil was amended with 40, 60, or 80 parts per million of phosphorus by addition of phosphate or phosphite. Then, seeds from the transgenic and control lines were sowed on the soil. The growth of the transgenic line was measured at different days after germination.

WT plants (tobacco) = assay: Greenhouse growth in sterilized sand and vermiculite amended with Phi, WT tobacco; format: in vivo, Nicotiana tabacum L. cv Xanthi; conditions: substrate supplemented with Phi, after transplantation
From the text: (§1) To determine whether expression of the ptxD gene would enable other plant species more amenable for physiological and weed-control studies to use Phi as a P source, we generated transgenic tobacco plants harboring the 35S::PTXD construct (ptxDNt lines) (see FIG. 8). Transgenic and control seedlings were transferred to plastic bags containing a sterilized mixture of sand and vermiculite amended with either Phi or Pi as P source. […] Because the main negative effect in vitro of Phi on WT plants was on root growth, we also examined the root system of transgenic and control plants grown under different treatments. […] Transgenic plants fertilized with Phi quantitatively performed as well as WT and ptxDNt plants fertilized with Pi (see FIG. 10A).
For Arabidopsis greenhouse experiments, pots were filled with 0.3 kg of a sterilized mixture of sand and vermiculite (1:1) and mechanically mixed with either Pi (KH2PO4) or Phi (NaH2PO3.5H2O) at 10, 20, and 40 mg·kg^−1. […] At harvest, aerial parts of Arabidopsis (36 days old) and Tobacco (120 days old) plants were cut off at the soil surface and dried in a vacuum oven at 70° C. for biomass quantification. […] Photosynthesis rate was determined using a portable Li-6200 photosynthesis system (Li-Cor, Lincoln, Nebr., USA) on fully expanded, young leaves. Leaf area was calculated using the software ImageJ [35]. […]

[2] = test system: control plants (WT Arabidopsis); assay: Greenhouse growth in sterilized sand and vermiculite supplemented with Phi, control plants; format: in vivo
Experimental: For Arabidopsis greenhouse experiments, pots were filled with 0.3 kg of a sterilized mixture of sand and vermiculite (1:1) and mechanically mixed with either Pi (KH2PO4) or Phi (NaH2PO3.5H2O) at 10, 20, and 40 mg·kg^−1. For tobacco experiments, 3 kg of the same substrate were weighed in black plastic bags amended with 20, 40, and 80 mg·kg^−1 of Pi or Phi. One plant per pot and 8-10 plants per line per treatment were included. Pots were arranged following a completely random design in the greenhouse. At harvest, aerial parts of Arabidopsis (36 days old) and Tobacco (120 days old) plants were cut off at the soil surface and dried in a vacuum oven at 70° C. for biomass quantification. In all cases, seeds were collected separately. Photosynthesis rate was determined using a portable Li-6200 photosynthesis system (Li-Cor, Lincoln, Nebr., USA) on fully expanded, young leaves. Leaf area was calculated using the software ImageJ [35].
FIG. 5. Transgenic Arabidopsis plants expressing a phosphite oxidoreductase can use phosphite as a phosphorus source. (A) Comparative growth of seedlings from ptxDAt-3, -5 and -7 lines, and wild type (WT, Col-0) in solid media containing 1 mM phosphate (Pi) or 1 mM phosphite (Phi). (B) Transgenic Arabidopsis lines and WT control grown in vertical plates containing 1 mM Phi. […]

[3] = test system: ptxDNt plants (ptxDNt-80); assay: Growth competition experiment, transgenic tobacco; format: in vivo, Nicotiana tabacum; conditions: Phi fertilization, competition with B. distachyon
From the text: (§2) In addition to the incapacity of plants to metabolize it, Phi acts as a potentially effective herbicide mainly by interfering with the signaling pathways that induce the rescue system activated in Pi-starved plants. Cultivation of transgenic plants expressing the ptxD gene, combined with Phi as a P fertilizer, could be an effective weed control system in soils with low Pi availability. To test this idea, we carried out growth competition experiments between ptxDNt plants and the grass weed False Brome (Brachypodium distachyon), using Phi or Pi as a P fertilizer. In unfertilized soil, both B. distachyon and tobacco plants had limited growth. When soil was fertilized with Pi, the growth of both species increased, with the grass showing faster growth than the tobacco plants.
(§3) For growth competition experiments, different proportions of seeds from ptxDNt-80 and the following weeds were utilized (transgenic:weed): Ipomoea purpurea (13:30), Brachiaria plantaginea (13:60), Amaranthus hybridus (5:15), Brachypodium distachyon (50:50). All seeds were sown in a tray containing a nonsterilized mixture of sand and vermiculite (2 kg for experiments with Amaranthus hybridus and 6 kg for the rest). […] Plants were harvested (at 54 day old for Brachiaria and Ipomoea or at 40 day old for A. hybridus experiments) for biomass quantification. […]

[4] = test system: False Brome (Brachypodium distachyon); assay: Growth competition experiment, weed; format: in vivo
From the text: as §2, §3

ptxDNt plants = assay: Greenhouse growth in sterilized sand and vermiculite amended with Phi, transgenic tobacco; format: in vivo, Nicotiana tabacum L. cv Xanthi
From the text: as §1
Pi is essential for CO2 fixation in the chloroplast, and plants suffering from Pi starvation have reduced levels of photosynthesis. […] When fertilized with either Pi or Phi, ptxDNt plants had rates of photosynthesis similar to those observed for control plants grown in Pi (see FIG. 10A). The effect on photosynthesis and root system development of control plants fertilized with Phi could not be evaluated because these plants died soon after transplantation.
For Arabidopsis greenhouse experiments, pots were filled with 0.3 kg of a sterilized mixture of sand and vermiculite (1:1) and mechanically mixed with either Pi (KH2PO4) or Phi (NaH2PO3.5H2O) at 10, 20, and 40 mg·kg^−1. […] At harvest, aerial parts of Arabidopsis (36 days old) and Tobacco (120 days old) plants were cut off at the soil surface and dried in a vacuum oven at 70° C. for biomass quantification. […] Photosynthesis rate was determined using a portable Li-6200 photosynthesis system (Li-Cor, Lincoln, Nebr., USA) on fully expanded, young leaves. Leaf area was calculated using the software ImageJ [35].
FIG. 10. […] Note that Phi was not detected either in leaf or floral tissues of ptxDNt-36 plants grown in a Phi-amended substrate. * Indicates measurements that are statistically different from the corresponding control (p<0.005).

[5] = test system: control seedlings (wild type, Col-0); assay: Germination and growth of non-transformed seedlings in media lacking Pi, supplemented with Phi; format: in vivo, Arabidopsis
Experimental: To confirm that 35S::PTXD plants are capable of using Phi as a P source, seeds from transgenic lines and non-transformed siblings were germinated in media lacking Pi, and supplemented with Phi.
FIG. 5. Transgenic Arabidopsis plants expressing a phosphite oxidoreductase can use phosphite as a phosphorus source. (A) Comparative growth of seedlings from ptxDAt-3, -5 and -7 lines, and wild type (WT, Col-0) in solid media containing 1 mM phosphate (Pi) or 1 mM phosphite (Phi). (B) Transgenic Arabidopsis lines and WT control grown in vertical plates containing 1 mM Phi. (C) Transgenic and WT plants grown in a sterilized mixture of sand and vermiculite fertilized with Pi or Phi as phosphorus (P) source. Treatment without addition of a P source (NO P) was utilized as a control. A top view of WT plants in media containing 40 mg·kg^−1 Phi is included. Photographed plants are representative of two experiments with 8-10 plants/treatment/line each. The bar represents 5 cm to indicate scale.
FIG. 6. Growth of WT Arabidopsis and tobacco plants in phosphite-containing media. Comparative growth of Arabidopsis and tobacco non-transformed seedlings in media lacking a phosphorus (P) source supplemented with 1 mM or 0.005 mM phosphate (Pi) or 1 mM phosphite (Phi).

phosphite
more seeds than either line fertilized with the same amount of phosphate ([1]; 20 parts per million phosphite, four months after germination): 33%
height versus transgenic or control plants fertilized with phosphate ([1]; 68 or 74 days after germination): greater height
biomass of leaves and stems versus either line fertilized with phosphate ([1]; 80 parts per million phosphite, 75 days after germination): higher biomass
total production of capsules and seeds per plant versus either line fertilized with phosphate ([1]; four months after germination): similar
development of WT plants (WT plants (tobacco)): completely arrested their development and died a few days after transplantation
survival of control plants [2]: ≤ 20 days
increase of tobacco biomass with respect to Pi fertilization [3]: 865%
decrease of weed biomass with respect to Pi fertilization ([4]; Phi fertilization, competition with ptxDNt tobacco): 90%
time at which weed growth was completely arrested ([4]; Phi used as fertilizer): 15-20 days after sowing
total biomass difference versus plants under similar Pi regime (ptxDNt plants; 80 mg·kg^−1 of Phi, greater than Pi, statistically significant): 40%
total biomass versus plants under similar Pi regimes (ptxDNt plants; 20 and 40 mg·kg^−1 of Phi): slightly higher
rate of photosynthesis versus control plants grown in Pi (ptxDNt plants; fertilized with Phi): similar
growth of control seedlings [5]: completely arrested

From patent publication US20140069008A1, “PLANT C[…] UTILIZING PHOSPHITE AS A NUTRIENT AND AS A CONTROL AGENT FOR WEEDS AND ALGAE” (Centro de Investigacion y de Estudios Avanzados del …, priority 2010, published 2014)
